Measurements as given in ChEMBL document CHEMBL1140639, “Leuconoxine, kopsinitarine, kopsijasmine, and kopsinone derivatives from Kopsia” (J Nat Prod, 2007).
pIC50: −log10 of the molar value.

Key:
Format in all cases: functional, cell-based
[1] = Cytotoxicity against human multidrug-resistant KB/VJ300 cells in presence of 0.12 uM vincristine
[2] = system: KB; assay: Cytotoxicity against human KB cells
[3] = Cytotoxicity against human KB/VJ300 cells

Compound: COC(=O)C1=C[C@@]23CCCN4CC[C@@]5(c6ccccc6N[C@]15CC2)[C@@H]43 [KOPSIJASMININE]
- pIC50 [1]: 4.41

Compound: CC[C@]1(O)C[C@H]2CN(CCc3c([nH]c4ccccc34)[C@@](C(=O)OC)(c3cc4c(cc3OC)N(C=O)[C@H]3[C@@](O)(C(=O)OC)[C@H](OC(C)=O)[C@]5(CC)C=CCN6CC[C@]43[C@@H]65)C2)C1 [VINCRISTINE]
- pIC50 [2]: 7.78
- pIC50 [3]: 5.87
